Test results taken from US20110152313A1 (MACQUARIE UNIVERSITY, priority 2008, published 2011).

Assays:
Experiment in all cases: kinase binding screen (kinase-tagged T7 phage, qPCR), % Ctrl
CAMK2A = CAMK2A (Homo sapiens, UniProt Q9UQM7)
Description: (§1) Percentage kinase inhibition at a set concentration was performed by methods well known in the prior art (Fabian, M. A. et al. Nat. Biotechnol. 2005, 23, 329; Karaman et al. (2008) Nat. Biotechnol. […], 26, 127). Briefly, kinase-tagged T7 phage strains were grown in parallel in 24-well blocks in an E. coli host derived from the BL21 strain. E. coli were grown to log-phase and infected with T7 phage from a frozen stock (multiplicity of infection=0.4) and incubated with shaking at 32° C. until lysis (90-150 minutes). The lysates were centrifuged (6,000×g) and filtered (0.2 μm) to remove cell debris. […] The liganded beads were blocked with excess biotin and washed with blocking buffer (SeaBlock (Pierce); 1% BSA, 0.05% Tween 20, 1 mM DTT) to remove unbound ligand and to reduce non-specific phage binding. […] Test compounds were prepared as 40× stocks in 100% DMSO and directly diluted into the assay. All reactions were performed in polypropylene 384-well plates in a final volume of 0.04 mL. […] The kinase concentration in the eluates was measured by qPCR.

BMPR1B = BMPR1B (Homo sapiens, UniProt O00238)
BMPR1B, sequence (O00238 14-502): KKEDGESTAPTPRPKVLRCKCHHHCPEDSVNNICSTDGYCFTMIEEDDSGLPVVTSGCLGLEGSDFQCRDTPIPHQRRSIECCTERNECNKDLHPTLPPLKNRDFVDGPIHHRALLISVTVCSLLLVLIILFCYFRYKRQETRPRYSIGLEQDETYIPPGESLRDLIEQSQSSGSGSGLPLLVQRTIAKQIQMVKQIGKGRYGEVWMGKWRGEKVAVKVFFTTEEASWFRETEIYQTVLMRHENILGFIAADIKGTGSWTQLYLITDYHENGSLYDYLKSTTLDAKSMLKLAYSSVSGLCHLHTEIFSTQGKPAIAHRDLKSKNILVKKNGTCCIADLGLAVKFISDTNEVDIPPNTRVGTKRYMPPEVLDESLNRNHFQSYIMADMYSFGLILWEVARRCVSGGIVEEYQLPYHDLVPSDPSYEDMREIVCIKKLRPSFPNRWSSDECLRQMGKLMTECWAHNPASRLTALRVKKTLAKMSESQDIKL
Description: as §1

GAK = molecular target: T1, GAK (Homo sapiens, UniProt O14976)
T1 sequence (O14976 1-1311): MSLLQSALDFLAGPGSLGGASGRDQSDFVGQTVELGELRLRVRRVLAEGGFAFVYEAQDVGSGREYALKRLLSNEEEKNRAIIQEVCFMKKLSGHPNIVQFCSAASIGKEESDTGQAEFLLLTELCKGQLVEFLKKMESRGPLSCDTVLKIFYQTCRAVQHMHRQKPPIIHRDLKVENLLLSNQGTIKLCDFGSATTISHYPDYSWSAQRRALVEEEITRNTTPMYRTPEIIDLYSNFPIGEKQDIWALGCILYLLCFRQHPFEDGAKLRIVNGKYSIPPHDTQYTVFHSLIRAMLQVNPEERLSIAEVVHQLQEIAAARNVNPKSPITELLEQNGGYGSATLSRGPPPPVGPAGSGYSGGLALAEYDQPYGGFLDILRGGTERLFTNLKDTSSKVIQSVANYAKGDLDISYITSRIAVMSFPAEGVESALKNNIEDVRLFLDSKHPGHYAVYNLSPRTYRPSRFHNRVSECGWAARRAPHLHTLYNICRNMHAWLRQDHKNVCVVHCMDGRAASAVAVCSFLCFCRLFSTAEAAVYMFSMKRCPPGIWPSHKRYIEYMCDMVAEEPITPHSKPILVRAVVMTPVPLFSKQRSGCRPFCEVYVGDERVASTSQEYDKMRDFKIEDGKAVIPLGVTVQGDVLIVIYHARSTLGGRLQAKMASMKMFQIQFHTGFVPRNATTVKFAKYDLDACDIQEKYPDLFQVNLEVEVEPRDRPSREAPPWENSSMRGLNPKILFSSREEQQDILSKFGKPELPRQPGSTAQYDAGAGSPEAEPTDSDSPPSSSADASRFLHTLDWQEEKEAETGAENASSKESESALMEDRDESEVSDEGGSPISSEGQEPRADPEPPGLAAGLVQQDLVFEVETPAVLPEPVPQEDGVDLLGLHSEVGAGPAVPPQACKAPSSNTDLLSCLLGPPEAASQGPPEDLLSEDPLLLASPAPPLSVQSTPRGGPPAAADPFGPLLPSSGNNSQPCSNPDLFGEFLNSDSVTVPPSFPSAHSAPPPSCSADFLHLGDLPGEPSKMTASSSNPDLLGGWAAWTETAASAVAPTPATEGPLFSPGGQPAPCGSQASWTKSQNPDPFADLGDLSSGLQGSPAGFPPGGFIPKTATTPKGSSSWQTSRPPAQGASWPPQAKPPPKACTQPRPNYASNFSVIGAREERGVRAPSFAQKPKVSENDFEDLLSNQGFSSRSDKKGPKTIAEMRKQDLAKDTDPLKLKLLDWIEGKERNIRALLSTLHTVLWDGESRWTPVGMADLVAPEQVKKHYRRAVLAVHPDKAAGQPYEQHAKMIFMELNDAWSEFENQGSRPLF
Description: as §1

ULK3 = molecular target: T2, ULK3 (Homo sapiens, UniProt Q6PHR2)
T2 sequence (Q6PHR2 1-472): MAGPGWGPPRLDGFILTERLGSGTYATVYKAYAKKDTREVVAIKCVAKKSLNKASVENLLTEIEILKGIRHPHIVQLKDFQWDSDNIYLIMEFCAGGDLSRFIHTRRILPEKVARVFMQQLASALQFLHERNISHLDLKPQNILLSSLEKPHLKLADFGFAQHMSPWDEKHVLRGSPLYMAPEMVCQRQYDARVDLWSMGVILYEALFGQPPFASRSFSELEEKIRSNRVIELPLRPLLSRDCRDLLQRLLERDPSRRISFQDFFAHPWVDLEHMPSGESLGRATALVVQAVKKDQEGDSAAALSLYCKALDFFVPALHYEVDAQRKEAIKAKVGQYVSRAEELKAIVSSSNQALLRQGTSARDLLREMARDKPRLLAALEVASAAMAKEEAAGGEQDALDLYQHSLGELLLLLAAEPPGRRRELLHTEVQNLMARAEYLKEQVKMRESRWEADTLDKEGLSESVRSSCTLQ
Description: as §1

CAMK2A, sequence (Q9UQM7 whole entry): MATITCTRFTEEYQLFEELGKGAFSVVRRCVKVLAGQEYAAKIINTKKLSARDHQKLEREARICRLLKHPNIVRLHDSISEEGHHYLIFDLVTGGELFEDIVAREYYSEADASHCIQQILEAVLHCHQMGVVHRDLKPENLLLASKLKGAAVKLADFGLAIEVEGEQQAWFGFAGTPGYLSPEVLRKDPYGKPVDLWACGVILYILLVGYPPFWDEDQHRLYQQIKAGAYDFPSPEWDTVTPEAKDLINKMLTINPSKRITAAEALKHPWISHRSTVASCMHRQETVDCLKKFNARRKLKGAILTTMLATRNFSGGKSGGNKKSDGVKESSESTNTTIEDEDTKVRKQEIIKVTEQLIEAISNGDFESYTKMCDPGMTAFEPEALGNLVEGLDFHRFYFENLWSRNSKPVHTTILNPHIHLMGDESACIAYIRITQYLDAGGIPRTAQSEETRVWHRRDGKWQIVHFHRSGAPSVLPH

Question: What does the source list for Nc1nc2c(-c3cnc4ccccc4c3)nccc2[nH]1 [drawing 36, 4-(quinolin-3-yl)-1H-imidazo[4,5-c]pyridin-2-amine]?
Answer: remaining activity at 1 µM (CAMK2A): 100%; remaining activity at 1 µM (BMPR1B): 0%; remaining activity at 1 µM (GAK): 91%; remaining activity at 1 µM (ULK3): 87%

Question: With Nc1nc2c(-c3ccccn3)nccc2[nH]1 [drawing 35, 4-(pyrid-2-yl)-1H-imidazo[4,5-c]pyridin-2-amine] as the compound, how does the remaining activity at 1 µM (CAMK2A) read?
Answer: The remaining activity at 1 µM was 100%.

Question: What about the remaining activity at 1 µM (BMPR1B) of the same compound?
Answer: Its remaining activity at 1 µM is 85%.

Question: What about the remaining activity at 1 µM (GAK) of the same compound?
Answer: The remaining activity at 1 µM was 54%.

Question: And the remaining activity at 1 µM (ULK3)?
Answer: The remaining activity at 1 µM was 51%.

Question: Which results are given for Nc1nc2c(-c3cc(Br)c(Br)[nH]3)nccc2[nH]1 [Ageladine A, ageladine A, reference compound]?
Answer: remaining activity at 1 µM (CAMK2A): 100%; remaining activity at 10 µM (CAMK2A; 10 μM): 97%; remaining activity at 1 µM (BMPR1B): 100%; remaining activity at 10 µM (BMPR1B; 10 μM): 78%; remaining activity at 1 µM (GAK): 45%; remaining activity at 10 µM (GAK; 10 μM): 19%; remaining activity at 1 µM (ULK3): 82%; remaining activity at 10 µM (ULK3; 10 μM): 81%
